According to patent publication US7125900B2, “Inhibitors of 11-β-hydroxy steroid dehydrogenase type 1” (Biovitrum AB, priority 2000, dated 2006):

Assays:
human 11-β-HSD1 enzyme = target: T1, human 11-β-HSD1 enzyme (Homo sapiens, UniProt P28845); test: human 11-β-HSD1 enzyme assay (scintillation proximity assay); format: biochemical; conditions: human 11-β-HSD1 expressed in Pichia pastoris; Ki calculated from IC50 by Cheng-Prusoff
T1 construct: made in house; host or cells: Pichia pastoris
Description: [1, 2(n)—^3H]-cortisone was purchased from Amersham Pharmacia Biotech. Anti-cortisol monoclonal mouse antibody, clone 6D6.7 was obtained from Immunotech and Scintillation proximity assay (SPA) beads coated with monoclonal antimouse antibodies were from Amersham Pharmacia Biotech. NADPH, tetrasodium salt was from Calbiochem and glucose-6-phosphate (G-6-P) was supplied by Sigma. The human 11-β-hydroxysteroid dehydrogenase type-I enzyme (11-β-HSD1) was expressed in Pichia pastoris. 18-β-glycyrrhetinic acid (GA) was obtained from Sigma. The serial dilutions of the compounds were performed on a Tecan Genesis RSP 150. Compounds to be tested were dissolved in DMSO (1 mM) and diluted in 50 mM Tris-HCl, pH 7.2 containing 1 mM EDTA.
The multiplication of plates was done on a WallacQuadra. The amount of the product [^3H]-cortisol, bound to the beads was determined in a Packard, Top Count microplate liquid scintillation counter.
The 11-β-HSD1 enzyme assay was carried out in 96 well microtiter plates (Packard, Optiplate) in a total well volume of 220 μL and contained 30 mM Tris-HCl, pH 7.2 with 1 mM EDTA, a substrate mixture tritiated Cortisone/NADPH (175 nM/181 μM), G-6-P (1 mM) and inhibitors in serial dilutions (9 to 0.15 μM). Reactions were initiated by the addition of human 11-β-HSD1, either as Pichia pastoris cell homogenate or microsomes prepared from Pichia pastoris (the final amount of enzyme used was varied between 0.057 to 0.11 mg/mL). Following mixing, the plates were shaken for 30 to 45 minutes at room temperature. The reactions were terminated with 10 μL 1 mM GA stop solution. Monoclonal mouse antibody was then added (10 μL of 4 μM) followed by 100 μL of SPA beads (suspended according to the manufacturers instructions). Appropriate controls were set up by omitting the 11-β-HSD1 to obtain the non-specific binding (NSB) value.
The plates were covered with plastic film and incubated on a shaker for 30 minutes, at room temperature, before counting. The amount of [^3H]-cortisol, bound to the beads was determined in a microplate liquid scintillation counter.
The calculation of the Ki values for the inhibitors was performed by use of Activity Base. The Ki value is calculated from IC50 and the Km value is calculated using the Cheng Prushoff equation (with reversible inhibition that follows the Michaelis-Menten equation): […] [Cheng, Y. C.; Prushoff, W. H. Biochem. Pharmacol. 1973, 22, 3099-3108]. The IC50 is measured experimentally in an assay wherein the decrease of the turnover of cortisone to cortisol is dependent on the inhibition potential of each substance. […] Illustrative of the invention, the following Ki values have been determined in the human 11-β-HSD1 enzyme assay (see Table 1): […]

bone nodule formation = conditions: cited from earlier work

T1 sequence (P28845 whole entry): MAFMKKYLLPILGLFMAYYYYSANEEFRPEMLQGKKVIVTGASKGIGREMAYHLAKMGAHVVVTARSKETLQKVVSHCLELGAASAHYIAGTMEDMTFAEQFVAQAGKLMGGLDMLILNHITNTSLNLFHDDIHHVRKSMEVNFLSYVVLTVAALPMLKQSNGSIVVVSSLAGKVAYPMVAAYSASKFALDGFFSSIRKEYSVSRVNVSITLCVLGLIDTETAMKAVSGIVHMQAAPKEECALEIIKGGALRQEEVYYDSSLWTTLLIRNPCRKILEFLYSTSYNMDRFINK

SMILES | Ki (human 11-β-HSD1 enzyme) [nM] | melting point [°C] | negative glucocorticoid effect on bone nodule formation (bone nodule formation)
Cc1csc(NS(=O)(=O)c2cccc(Cl)c2C)n1 [Example 3, 3-Chloro-2-methyl-N-(4-methyl-1,3-thiazol-2-yl)benzenesulfonamide] | 122 | – | –
Cc1nc(NS(=O)(=O)c2c(Cl)cc(Cl)cc2Cl)sc1CC(Cl)(Cl)Cl [Example 6, 2,4,6-trichloro-N-[4-methyl-5-(2,2,2-trichloroethyl)-1,3-thiazol-2-yl]benzenesulfonamide] | 123 | 228 to 229 | –
CCCc1csc(NS(=O)(=O)c2cccc(Cl)c2C)n1 [Example 11, 3-Chloro-2-methyl-N-(4-propyl-1,3-thiazol-2-yl)benzenesulfonamide] | – | 169 | –
Cc1c(Cl)cccc1S(=O)(=O)Nc1nc(C(C)(C)C)cs1 [Example 15, N-(4-Tert-butyl-1,3-thiazol-2-yl)-3-chloro-2-methylbenzenesulfonamide] | – | 178 | –
C=Cc1csc(NS(=O)(=O)c2cccc(Cl)c2C)n1 [Example 18, 3-Chloro-2-methyl-N-(4-vinyl-1,3-thiazol-2-yl)benzenesulfonamide] | 90 | – | –
CC(=O)c1sc(NS(=O)(=O)c2ccc(Oc3cccc(Cl)c3C#N)cc2)nc1C [Example 22, N-(5-acetyl-4-methyl-1,3-thiazol-2-yl)-4-(3-chloro-2-cyanophenoxy)benzenesulfonamide] | 108 | – | –
CC1(C)[C@@H](OC(=O)CCC(=O)O)CC[C@]2(C)[C@H]3C(=O)C=C4[C@@H]5C[C@@](C)(C(=O)O)CC[C@]5(C)CC[C@@]4(C)[C@]3(C)CC[C@@H]12 [carbenoxolone] | – | – | blocked
